Measured values published in patent US9399646B2 (Genentech, Inc., priority 2010, dated 2016).

What was measured:
[1] = test system: MCF-7 cells; experiment: Breast cancer cell viability assay (CellTiter-Glo, 5 days); format: cell-based; details: 5 days' compound exposure; for IC50: Homo sapiens, MCF7, 120 h
In short: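 Eleven-point semilog compound series, final 0.3-0.000003 μM, added to overnight-adhered MCF-7 cells (320/well; RPMI, 10% FBS, 20 mM HEPES) for 5 days. Viability read by CellTiter-Glo luminescence, background from medium without cells subtracted, expressed relative to untreated cells.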

[2] = molecular target: T1, ER-α in MCF-7 cells (Homo sapiens, UniProt P03372); experiment: Breast cancer cell ER-α in cell western assay (SP1); format: cell-based; parameters: endogenous in cells; host or cells: MCF-7; details: 4 or 24 hr post compound addition; for Emax: MCF7, SP1 antibody, read-out: ER-α In Cell Western Assay (SP1) Max Response; for DC50: SP1 antibody, read-out: ER-α In Cell Western Assay (SP1) IC50
T1 sequence (P03372 1-595): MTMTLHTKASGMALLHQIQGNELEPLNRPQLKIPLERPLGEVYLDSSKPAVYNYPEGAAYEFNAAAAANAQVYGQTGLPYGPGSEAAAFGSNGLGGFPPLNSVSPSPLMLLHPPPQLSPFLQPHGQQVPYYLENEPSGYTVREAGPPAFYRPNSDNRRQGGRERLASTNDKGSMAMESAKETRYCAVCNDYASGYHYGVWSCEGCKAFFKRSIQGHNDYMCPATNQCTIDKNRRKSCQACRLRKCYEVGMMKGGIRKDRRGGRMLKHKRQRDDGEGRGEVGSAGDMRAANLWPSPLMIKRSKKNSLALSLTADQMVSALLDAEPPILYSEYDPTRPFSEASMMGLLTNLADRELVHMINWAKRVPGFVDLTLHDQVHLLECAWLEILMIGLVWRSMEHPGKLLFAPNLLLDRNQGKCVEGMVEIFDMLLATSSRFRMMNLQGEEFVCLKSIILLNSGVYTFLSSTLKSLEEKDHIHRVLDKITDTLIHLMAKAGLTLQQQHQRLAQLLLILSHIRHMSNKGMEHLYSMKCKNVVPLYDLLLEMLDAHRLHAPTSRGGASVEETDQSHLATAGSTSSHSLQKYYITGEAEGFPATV
In short: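 Percent remaining ER: SP1 immunofluorescence normalized to DRAQ5 nuclear stain, compared with untreated controls. Treatment lasted 4 or 24 hr across 0.3–0.000003 μM final in MCF-7.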

Compound | MCF7 Viability Assay Max Response [1] | IC50 [1] [nM] | Emax [2] [%] | DC50 [2] [nM]
CC/C(=C(/c1ccc(/C=C/C(=O)O)cc1)c1ccc2[nH]ncc2c1)c1ccc(C(=O)N(C)C)cc1F [Compound 212, (E)-3-(4-((E)-2-(4-(Dimethylcarbamoyl)-2-fluorophenyl)-1-(1H-indazol-5-yl)but-1-en-1-yl)phenyl)acrylic acid] | ++ (++ = a single % value ≧ 40%) | > 100 | ≥ 40 | > 100
CC/C(=C(/c1ccc(/C=C/C(=O)O)cc1)c1ccc2[nH]ncc2c1)c1cccc(OCCOC)c1 [Compound 341, (E)-3-(4-((E)-1-(1H-Indazol-5-yl)-2-(3-(2-methoxyethoxy)phenyl)but-1-en-1-yl)phenyl)acrylic acid] | ++ (++ = a single % value ≧ 40%) | ≤ 100 | ≥ 40 | ≤ 100
CC/C(=C(/c1ccc(/C=C/C(=O)O)cc1)c1ccc2[nH]ncc2c1)c1cccc(-c2nccs2)c1 [Compound 391, (E)-3-(4-((E)-1-(1H-Indazol-5-yl)-2-(3-(thiazol-2-yl)phenyl)but-1-en-1-yl)phenyl)acrylic acid] | ++ (++ = a single % value ≧ 40%) | ≤ 100 | ≥ 40 | ≤ 100
CC/C(=C(/c1ccc(/C=C/C(=O)O)cc1)c1ccc2[nH]ncc2c1)c1csc(-c2ccccc2)c1 [Compound 271, (E)-3-(4-((E)-1-(1H-Indazol-5-yl)-2-(5-phenylthiophen-3-yl)but-1-en-1-yl)phenyl)acrylic acid] | ++ (++ = a single % value ≧ 40%) | ≤ 100 | ≥ 40 | ≤ 100
CC/C(=C(/c1ccc(/C=C/C(=O)O)cc1)c1ccc2[nH]ncc2c1)c1ccc(Oc2ccccn2)cc1 [Compound 316, (E)-3-(4-((E)-1-(1H-Indazol-5-yl)-2-(4-(pyridin-2-yloxy)phenyl)but-1-en-1-yl)phenyl)acrylic acid] | ++ (++ = a single % value ≧ 40%) | ≤ 100 | ≥ 40 | ≤ 100
CC/C(=C(/c1ccc(/C=C/C(=O)O)cc1)c1ccc2[nH]ncc2c1)c1cccc(OCc2cccnc2)c1 [Compound 359, (E)-3-(4-((E)-1-(1H-Indazol-5-yl)-2-(3-(pyridin-3-ylmethoxy)phenyl)but-1-en-1-yl)phenyl)acrylic acid] | ++ (++ = a single % value ≧ 40%) | ≤ 100 | ≥ 40 | ≤ 100
CC/C(=C(/c1ccc(/C=C/C(=O)NS(=O)(=O)c2cccnc2)cc1)c1ccc2[nH]ncc2c1)c1ccc(F)cc1Cl [Compound 433, (E)-3-(4-((E)-2-(2-Chloro-4-fluorophenyl)-1-(1H-indazol-5-yl)but-1-en-1-yl)phenyl)-N-(pyridin-3-ylsulfonyl)acrylamide] | ++ (++ = a single % value ≧ 40%) | ≤ 100 | ≥ 40 | ≤ 100
CC/C(=C(/c1ccc(/C=C/C(=O)O)cc1)c1cnc2[nH]ccc2c1)c1ccccc1 [Compound 68, (E)-3-(4-((E)-2-Phenyl-1-(1H-pyrrolo[2,3-b]pyridin-5-yl)but-1-en-1-yl)phenyl)acrylic acid] | ++ (++ = a single % value ≧ 40%) | > 100 | ≥ 40 | > 100
CC/C(=C(/c1ccc(/C=C/C(N)=O)cc1)c1ccc2[nH]ncc2c1)c1ccc(F)cc1Cl [Compound 417, (E)-3-(4-((E)-2-(2-Chloro-4-fluorophenyl)-1-(1H-indazol-5-yl)but-1-en-1-yl)phenyl)acrylamide] | ++ (++ = a single % value ≧ 40%) | ≤ 100 | ≥ 40 | ≤ 100
CC/C(=C(/c1ccc(/C=C/C(=O)O)cc1)c1ccc2[nH]ncc2c1)c1ccnn1C [Compound 208, (E)-3-(4-((E)-1-(1H-Indazol-5-yl)-2-(1-methyl-1H-pyrazol-5-yl)but-1-en-1-yl)phenyl)acrylic acid] | + (+ = a single % value < 40%) | > 100 | ≥ 40 | > 100
CC/C(=C(/c1ccc(/C=C/C(=O)O)cc1)c1ccc2[nH]ncc2c1)c1ccc(Oc2ccccc2)cc1C [Compound 319, (E)-3-(4-((E)-1-(1H-Indazol-5-yl)-2-(2-methyl-4-phenoxyphenyl)but-1-en-1-yl)phenyl)acrylic acid] | ++ (++ = a single % value ≧ 40%) | ≤ 100 | ≥ 40 | ≤ 100
CC/C(=C(/c1ccc(/C=C/C(=O)O)cc1)c1ccc2c(cnn2C(=O)C(C)C)c1)c1ccc(F)cc1Cl [Compound 404, (E)-3-(4-((E)-2-(2-Chloro-4-fluorophenyl)-1-(1-isobutyryl-1H-indazol-5-yl)but-1-en-1-yl)phenyl)acrylic acid] | ++ (++ = a single % value ≧ 40%) | ≤ 100 | ≥ 40 | ≤ 100
CC/C(=C(/c1ccc(/C=C/C(=O)O)cc1)c1ccc2[nH]ncc2c1)c1cc2c(s1)CCN(C)C2 [Compound 270, (E)-3-(4-((E)-1-(1H-Indazol-5-yl)-2-(5-methyl-4,5,6,7-tetrahydrothieno[3,2-c]pyridin-2-yl)but-1-en-1-yl)phenyl)acrylic acid] | ++ (++ = a single % value ≧ 40%) | > 100 | ≥ 40 | > 100
CC/C(=C(/c1ccc(/C=C/C(=O)O)cc1)c1coc2c(OC)cccc12)c1ccccc1 [Compound 163, (E)-3-(4-((E)-1-(7-Methoxybenzofuran-3-yl)-2-phenylbut-1-en-1-yl)phenyl)acrylic acid] | ++ (++ = a single % value ≧ 40%) | ≤ 100 | ≥ 40 | ≤ 100
CC/C(=C(/c1ccc(/C=C/C(=O)O)cc1)c1ccc2[nH]ncc2c1)c1cnccc1C [Compound 218, (E)-3-(4-((E)-1-(1H-Indazol-5-yl)-2-(4-methylpyridin-3-yl)but-1-en-1-yl)phenyl)acrylic acid] | ++ (++ = a single % value ≧ 40%) | > 100 | ≥ 40 | 
CC/C(=C(/c1ccc(/C=C/C(=O)O)cc1)c1ccc2[nH]ncc2c1)c1ccncc1C#N [Compound 303, (E)-3-(4-((E)-2-(3-Cyanopyridin-4-yl)-1-(1H-indazol-5-yl)but-1-en-1-yl)phenyl)acrylic acid] | ++ (++ = a single % value ≧ 40%) | > 100 | ≥ 40 | > 100
CC/C(=C(/c1ccc(-c2cc(O)on2)cc1)c1ccc2[nH]ncc2c1)c1ccc(F)cc1Cl [Compound 334, (E)-3-(4-(2-(2-Chloro-4-fluorophenyl)-1-(1H-indazol-5-yl)but-1-en-1-yl)phenyl)isoxazol-5-ol] | + (+ = a single % value < 40%) | > 100 | ≥ 40 | ≤ 100
CC/C(=C(/c1ccc(/C=C/C(=O)NOC)cc1)c1ccc2[nH]ncc2c1)c1ccc(F)cc1Cl [Compound 421, (E)-3-(4-((E)-2-(2-Chloro-4-fluorophenyl)-1-(1H-indazol-5-yl)but-1-en-1-yl)phenyl)-N-methoxyacrylamide] | ++ (++ = a single % value ≧ 40%) | ≤ 100 | ≥ 40 | ≤ 100
CNC(=O)/C=C/c1ccc(/C(=C(\c2ccccc2)C2CCC2)c2ccc3c(cnn3C)c2)cc1 [Compound 411, (E)-3-(4-((E)-2-Cyclobutyl-1-(1-methyl-1H-indazol-5-yl)-2-phenylvinyl)phenyl)-N-methylacrylamide] | ++ (++ = a single % value ≧ 40%) | ≤ 100 | ≥ 40 | ≤ 100
CC/C(=C(/c1ccc(/C=C/C(=O)O)cc1)c1ccc2scnc2c1)c1ccccc1 [Compound 141, (E)-3-(4-((E)-1-(Benzo[d]thiazol-5-yl)-2-phenylbut-1-en-1-yl)phenyl)acrylic acid] | ++ (++ = a single % value ≧ 40%) | ≤ 100 | ≥ 40 | ≤ 100
CC/C(=C(/c1ccc(/C=C/C(=O)O)cc1)c1ccc2[nH]ncc2c1)c1ccncc1C(F)(F)F [Compound 304, (E)-3-(4-((E)-1-(1H-Indazol-5-yl)-2-(3-(trifluoromethyl)pyridin-4-yl)but-1-en-1-yl)phenyl)acrylic acid] | ++ (++ = a single % value ≧ 40%) | ≤ 100 | ≥ 40 | ≤ 100
